Assay results taken from patent publication US6110949A, “N-(substituted glycyl)-4-cyanothiazolidines, pharmaceutical compositions containing them and their use in inhibiting dipeptidyl peptidase-IV” (Novartis AG, priority 1999, dated 2000).
Structures can show the parent of a compound that is named as a salt.

What was measured:
Format in all cases: biochemical
[1] = target: T1, DPP-IV (Caco-2 cell extract) (Homo sapiens, UniProt P27487); test: Caco-2 DPP-IV Assay (inhibition of DPP-IV activity from human colonic carcinoma cell extracts); conditions: substrate H-Alanine-Proline-pNA, pH 7.4, room temperature, 10 minutes
T1 construct: adding 20 μg solubilized Caco-2 protein; endogenous in cells; host or cells: Caco-2 (ATCC HTB 37), differentiated to induce DPP-IV expression; nonidet-P40 extract
Text: As indicated above, all of the compounds of formula I, and their corresponding pharmaceutically acceptable acid addition salts, are useful in inhibiting DPP-IV. […] The human colonic carcinoma cell line Caco-2 was obtained from the American Type Culture Collection (ATCC HTB 37). Differentiation of the cells to induce DPP-IV expression was accomplished as described by Reisher, et al. in an article entitled "Increased expression of . . . intestinal cell line Caco-2" in Proc. Natl. Acad. Sci., Vol. 90, pgs. 5757-5761 (1993). Cell extract is prepared from cells solubilized in 10 mM Tris-HCl, 0.15 M NaCl, 0.04 t.i.u. aprotinin, 0.5% nonidet-P40, pH 8.0, which is centrifuged at 35,000 g for 30 min. at 4° C. to remove cell debris. The assay is conducted by adding 20 μg solubilized Caco-2 protein, diluted to a final volume of 125 μl in assay buffer (25 mM Tris-HCl pH 7.4, 140 mM NaCl, 10 mM KCl, 1% bovine serum albumin) to microtiter plate wells. The reaction is initiated by adding 25 μl of 1 mM substrate (H-Alanine-Proline-pNA; pNA is p-nitroaniline). The reaction is run at room temperature for 10 minutes after which time a 19 μl volume of 25% glacial acetic acid is added to stop the reaction. Test compounds are typically added as 30 μl additions and the assay buffer volume is reduced to 95 μl. A standard curve of free p-nitroaniline is generated using 0-500 μM solutions of free pNA in assay buffer. The curve generated is linear and is used for interpolation of substrate consumption (catalytic activity in nmoles substrate cleaved /min). The endpoint is determined by measuring absorbance at 405 nm in a Molecular Devices UV Max microtiter plate reader. The potency of the test compounds as DPP-IV inhibitors, expressed as IC50, is calculated from 8-point, dose-response curves using a 4-parameter logistic function.

human plasma DPP-IV = target: T2, human plasma DPP-IV (Homo sapiens, UniProt P27487); test: Inhibition of DPP-IV activity in human plasma; conditions: substrate H-Glycine-Proline-AMC, pH 7.8, room temperature, 20 min
T2 construct: from tissue; host or cells: human plasma
Experimental: (§1) 192-197 (1992). Briefly, five μl of plasma are added to 96-well flat-bottom mictotiter plates (Falcon), followed by the addition of 5 μl of 80 mM MgCI2 in incubation buffer (25 mM HEPES, 140 mM NaCl, 1% RIA-grade BSA, pH 7.8). After a 5 min. incubation at room temperature, the reaction is initiated by the addition of 10 μl of incubation buffer containing 0.1 mM substrate (H-Glycine-Proline-AMC; AMC is 7-amino-4-methylcoumarin). The plates are covered with aluminum foil (or kept in the dark) and incubated at room temperature for 20 min. After the 20 min. reaction, fluorescence is measured using a CytoFluor 2350 fluorimeter (Excitation 380 nm Emission 460 nm; sensitivity setting 4). Test compounds are typically added as 2 μl additions and the assay buffer volume is reduced to 13 μl. A fluorescence-concentration curve of free AMC is generated using 0-50 μM solutions of AMC in assay buffer. The curve generated is linear and is used for interpolation of substrate consumption (catalytic activity in nmoles substrate cleaved/min). As with the previous assay, the potency of the test compounds as DPP-IV inhibitors, expressed as IC50, is calculated from 8-point, dose-response curves using a 4 parameter logistic function.

rat plasma DPP-IV = target: T3, rat plasma DPP-IV (Rattus norvegicus, UniProt P14740); test: Inhibition of DPP-IV activity in rat plasma; conditions: substrate H-Glycine-Proline-AMC, pH 7.8, room temperature, 20 min
T3 construct: from tissue; host or cells: rat plasma
Experimental: as §1

T3 sequence (P14740 37-767 limits assumed): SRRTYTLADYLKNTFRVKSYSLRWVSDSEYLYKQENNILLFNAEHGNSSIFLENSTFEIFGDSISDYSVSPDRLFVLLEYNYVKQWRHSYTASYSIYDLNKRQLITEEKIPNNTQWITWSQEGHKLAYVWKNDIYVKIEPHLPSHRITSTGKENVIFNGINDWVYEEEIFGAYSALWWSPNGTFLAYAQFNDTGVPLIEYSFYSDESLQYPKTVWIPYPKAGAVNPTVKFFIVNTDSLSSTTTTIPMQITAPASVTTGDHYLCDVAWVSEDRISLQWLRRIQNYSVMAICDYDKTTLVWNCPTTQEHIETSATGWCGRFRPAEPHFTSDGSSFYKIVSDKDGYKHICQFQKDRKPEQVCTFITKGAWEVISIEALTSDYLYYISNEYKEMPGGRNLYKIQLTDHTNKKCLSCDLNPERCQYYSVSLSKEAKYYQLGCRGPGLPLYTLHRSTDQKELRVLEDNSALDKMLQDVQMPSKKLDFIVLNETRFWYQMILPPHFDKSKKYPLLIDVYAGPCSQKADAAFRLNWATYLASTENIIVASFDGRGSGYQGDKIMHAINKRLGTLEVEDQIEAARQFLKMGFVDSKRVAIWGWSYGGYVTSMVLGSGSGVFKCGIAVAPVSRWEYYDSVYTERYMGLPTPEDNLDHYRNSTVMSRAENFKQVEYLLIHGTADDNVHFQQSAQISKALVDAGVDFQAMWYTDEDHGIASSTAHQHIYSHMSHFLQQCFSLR
T1 sequence (P27487 whole entry): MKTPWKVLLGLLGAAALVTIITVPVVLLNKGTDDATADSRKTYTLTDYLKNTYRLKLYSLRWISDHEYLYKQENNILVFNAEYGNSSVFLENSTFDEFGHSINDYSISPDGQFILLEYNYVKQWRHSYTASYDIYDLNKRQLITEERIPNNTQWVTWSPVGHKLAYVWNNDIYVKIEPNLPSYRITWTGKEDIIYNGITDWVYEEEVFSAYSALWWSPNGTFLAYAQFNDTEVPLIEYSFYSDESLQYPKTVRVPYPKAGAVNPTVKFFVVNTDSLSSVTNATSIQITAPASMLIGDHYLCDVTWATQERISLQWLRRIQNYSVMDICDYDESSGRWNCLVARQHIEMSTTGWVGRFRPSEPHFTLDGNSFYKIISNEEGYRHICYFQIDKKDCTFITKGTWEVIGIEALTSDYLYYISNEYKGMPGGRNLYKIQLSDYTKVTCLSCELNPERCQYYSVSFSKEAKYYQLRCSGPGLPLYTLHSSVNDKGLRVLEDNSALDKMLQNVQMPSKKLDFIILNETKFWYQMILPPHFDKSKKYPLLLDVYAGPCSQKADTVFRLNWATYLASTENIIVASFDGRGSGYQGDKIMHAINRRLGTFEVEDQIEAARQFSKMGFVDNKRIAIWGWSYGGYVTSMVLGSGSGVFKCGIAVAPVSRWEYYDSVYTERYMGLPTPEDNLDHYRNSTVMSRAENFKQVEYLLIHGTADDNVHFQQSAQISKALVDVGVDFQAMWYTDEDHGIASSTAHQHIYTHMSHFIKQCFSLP
T2 sequence (P27487 39-766 limits assumed): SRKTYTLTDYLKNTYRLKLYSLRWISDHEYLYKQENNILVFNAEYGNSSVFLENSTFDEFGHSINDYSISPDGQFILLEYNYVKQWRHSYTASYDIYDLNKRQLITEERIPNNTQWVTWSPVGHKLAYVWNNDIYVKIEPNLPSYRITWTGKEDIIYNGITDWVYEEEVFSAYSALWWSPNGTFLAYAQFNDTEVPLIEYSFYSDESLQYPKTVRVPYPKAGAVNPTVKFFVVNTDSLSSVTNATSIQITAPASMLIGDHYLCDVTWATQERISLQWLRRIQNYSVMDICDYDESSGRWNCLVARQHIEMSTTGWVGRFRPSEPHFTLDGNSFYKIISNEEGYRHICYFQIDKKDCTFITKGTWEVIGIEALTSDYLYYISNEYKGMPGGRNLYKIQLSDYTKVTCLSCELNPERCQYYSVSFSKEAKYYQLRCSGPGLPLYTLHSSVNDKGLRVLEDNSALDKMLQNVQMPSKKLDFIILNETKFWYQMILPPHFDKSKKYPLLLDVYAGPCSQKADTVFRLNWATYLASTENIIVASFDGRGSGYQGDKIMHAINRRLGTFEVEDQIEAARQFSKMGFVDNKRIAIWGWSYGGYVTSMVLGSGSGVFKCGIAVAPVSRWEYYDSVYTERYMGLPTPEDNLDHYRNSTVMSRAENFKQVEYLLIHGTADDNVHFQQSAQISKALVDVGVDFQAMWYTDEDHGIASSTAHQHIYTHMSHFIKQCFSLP

Compound | IC50 [1] [nM] | IC50 (human plasma DPP-IV) [nM] | IC50 (rat plasma DPP-IV) [nM]
N#C[C@@H]1CSCN1C(=O)CNC1CCCCC1 [Ex. 1, 3-[(cyclohexyl)amino]acetyl-4-cyano-(R)-thiazolidine monohydrochloride] | 7 | 10 | 10
CC(C)OCCCNCC(=O)N1CSC[C@H]1C#N [Ex. 2, 3-[(3-isopropoxypropyl)amino]acetyl-4-cyano-(R)-thiazolidine monohydrochloride] | 7 | 5 | 1
CC(C)NCC(=O)N1CSC[C@H]1C#N [Ex. 3, 3-[(isopropyl)amino]acetyl-4-cyano-(R)-thiazolidine monohydrochloride] | 6 | 3 | 3
